Key:
[1] = biological target: Full length WRN protein (aa 2-1432) (Homo sapiens (Human), UniProt Q14191); assay: WRN ATPase ADP-Glo biochemical assay, Assay Format B (100 μM ATP); conditions: 0.25 nM WRN, 100 nM C6.18 ssDNA, 60 min preincubation, read-out: ATPase ADPGlo AC50 (uM)- Assay Format B
HCT116 cells = assay: HCT116 (MSI) 7 day viability, CellTiter Glo; type: cell-based; conditions: Homo sapiens, HCT-116, 168 h, 7 days, read-out: HCT116 (MSI) Viability 7 Day Abs AC50
Description: (§1) Compounds were dissolved in DMSO to a concentration of 10 mM. Compounds were then serially diluted in 10 3-fold steps in DMSO using an EVO (Tecan). Plates were then spun down for 1 minute at 1,000 RPM at room temperature.
(§2) The colon carcinoma lines HCT116 (RRID: CVCL_0291) and HT29 (RRID: CVCL_0320) were obtained from ATCC. […] All cells were maintained at 37° C. with 5% CO2 incubator.
(§3) After harvesting, cells were spun down for 5 minutes at 1200 RPM. Cells were resuspended in 10 mL of growth media and counted using Countess (Thermo Fisher). Cell concentrations were adjusted to 50 cells/well for HCT116 and 500 cells/well for HT29. 50 μL of diluted cells were added to compound treated 384 well plates using a 12 channel, 300 uL electronic handheld pipette (Integra). Cell treated plates were placed in 37 C with 5% CO2 incubator for 7 days.
(§4) Afterwards, cells were removed from incubator and equilibrated to room temperature for 15 minutes. 35 uL of CellTiter Glo (Promega #G7573) reagent were added to each well using a 12 channel, 300 uL electronic handheld pipette (Integra). Plates were incubated for 20 minutes at room temperature. Luminescence quantification was performed using Envision (PerkinElmer).
(§5) For data analysis, the assay background signal was determined in wells containing medium, but no cells. Potencies were calculated by linear least squares fit to the four-parameter logistic IC50 equation. The reported IC50 values are the geometrical mean of at least 2 independent replicates.

HT29 cells = assay: HT29 (MSS) 7 day viability, CellTiter Glo; type: cell-based; conditions: Homo sapiens, HT-29, 168 h, 7 days, read-out: HT29 (MSS) Viability 7 Day CTGAbs AC50
Description: as §1, §2, §3, §4, §5

Full length WRN protein (aa 2-1432), sequence (Q14191 2-1432): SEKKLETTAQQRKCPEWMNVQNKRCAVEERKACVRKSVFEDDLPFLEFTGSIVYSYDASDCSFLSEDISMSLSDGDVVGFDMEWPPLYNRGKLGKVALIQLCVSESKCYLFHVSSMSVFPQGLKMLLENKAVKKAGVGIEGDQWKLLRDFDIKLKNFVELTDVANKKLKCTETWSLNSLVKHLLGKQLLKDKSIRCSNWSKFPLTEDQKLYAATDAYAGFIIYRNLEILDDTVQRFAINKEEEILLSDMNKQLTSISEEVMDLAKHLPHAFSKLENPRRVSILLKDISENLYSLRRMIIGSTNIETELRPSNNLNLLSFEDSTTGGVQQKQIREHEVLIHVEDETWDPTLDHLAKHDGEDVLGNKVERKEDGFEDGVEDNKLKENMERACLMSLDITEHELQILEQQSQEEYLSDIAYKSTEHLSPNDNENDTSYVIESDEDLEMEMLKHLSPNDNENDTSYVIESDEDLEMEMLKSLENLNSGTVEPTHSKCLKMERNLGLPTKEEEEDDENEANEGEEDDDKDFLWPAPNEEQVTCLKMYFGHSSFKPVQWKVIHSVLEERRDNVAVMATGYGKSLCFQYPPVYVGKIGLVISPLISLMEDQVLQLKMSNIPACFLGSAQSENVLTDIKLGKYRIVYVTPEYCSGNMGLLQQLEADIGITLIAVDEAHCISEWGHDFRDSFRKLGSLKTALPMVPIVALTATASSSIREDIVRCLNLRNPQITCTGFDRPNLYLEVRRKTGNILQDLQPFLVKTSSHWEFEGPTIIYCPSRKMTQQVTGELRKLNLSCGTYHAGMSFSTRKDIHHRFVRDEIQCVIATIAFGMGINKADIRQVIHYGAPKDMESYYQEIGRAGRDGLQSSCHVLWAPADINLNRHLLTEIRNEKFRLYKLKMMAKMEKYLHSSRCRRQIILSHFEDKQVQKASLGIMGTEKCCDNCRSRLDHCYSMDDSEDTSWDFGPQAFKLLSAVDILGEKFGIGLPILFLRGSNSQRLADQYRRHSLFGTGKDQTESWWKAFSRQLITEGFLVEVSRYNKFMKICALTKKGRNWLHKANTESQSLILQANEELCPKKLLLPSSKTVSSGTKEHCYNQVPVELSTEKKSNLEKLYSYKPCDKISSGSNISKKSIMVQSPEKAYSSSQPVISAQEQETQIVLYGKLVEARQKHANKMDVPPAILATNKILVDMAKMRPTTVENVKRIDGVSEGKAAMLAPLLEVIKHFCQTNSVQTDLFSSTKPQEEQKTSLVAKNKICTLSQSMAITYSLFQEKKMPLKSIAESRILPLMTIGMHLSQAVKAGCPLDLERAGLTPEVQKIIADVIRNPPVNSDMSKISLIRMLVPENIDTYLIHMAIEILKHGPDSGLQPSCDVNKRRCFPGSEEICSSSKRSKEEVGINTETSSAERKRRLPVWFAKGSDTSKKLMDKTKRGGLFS

AC50 [1]	Compound	AC50 (HCT116 cells)	AC50 (HT29 cells)
0.005 to 0.015 µM	C=CC(=O)N1CCc2nn(-c3ccc(C4CC4)c(F)c3O)c3c2C(C1)N(C(=O)c1cnc(C(F)(F)F)cc1N)CC3 (stereo not drawn) [Compound 203, 1-(5-(4-amino-6-(trifluoromethyl)nicotinoyl)-2-(4-cyclopropyl-3-fluoro-2-hydroxyphenyl)-2,3,4,5,5a,6,8,9-octahydro-7H-1,2,5,7-tetraazabenzo[cd]azulen-7-yl)prop-2-en-1-one]	1 to 100 nM	> 3000 nM
0.015 to 0.055 µM	C=CC(=O)N1CCc2nn(-c3ccc(C4CCC4)cc3O)c3c2C(C1)N(C(=O)c1cnc(Br)c(OC(F)F)c1)CC3 (stereo not drawn) [Compound 94, 1-(5-(6-bromo-5-(difluoromethoxy)nicotinoyl)-2-(4-cyclobutyl-2-hydroxyphenyl)-2,3,4,5,5a,6,8,9-octahydro-7H-1,2,5,7-tetraazabenzo[cd]azulen-7-yl)prop-2-en-1-one]	1 to 100 nM	> 3000 nM
0.015 to 0.055 µM	C=CC(=O)N1CCc2nn(-c3ccc(C4CC4)cc3)c3c2C(C1)N(C(=O)c1cnc(SC)nc1N)CC3 (stereo not drawn) [Compound 204, 1-(5-(4-amino-2-(methylthio)pyrimidine-5-carbonyl)-2-(4-cyclopropylphenyl)-2,3,4,5,5a,6,8,9-octahydro-7H-1,2,5,7-tetraazabenzo[cd]azulen-7-yl)prop-2-en-1-one]	1 to 100 nM	> 3000 nM
0.0015 to 0.005 µM	C=CC(=O)N1CCc2nn(-c3ccc(C4CC4)cc3O)c3c2C(C1)N(C(=O)c1cnc(SC(F)(F)F)cc1N)CC3 (stereo not drawn) [Compound 209, 1-(5-(4-amino-6-((trifluoromethyl)thio)nicotinoyl)-2-(4-cyclopropyl-2-hydroxyphenyl)-2,3,4,5,5a,6,8,9-octahydro-7H-1,2,5,7-tetraazabenzo[cd]azulen-7-yl)prop-2-en-1-one]	1 to 100 nM	> 3000 nM
0.005 to 0.015 µM	C=CC(=O)N1CCc2nn(-c3ccc(C4CC4)cc3O)c3c2C(C1)N(C(=O)c1cnc(C(F)(F)F)nc1N)CC3 (stereo not drawn) [Compound 197, 1-(5-(4-amino-2-(trifluoromethyl)pyrimidine-5-carbonyl)-2-(4-cyclopropyl-2-hydroxyphenyl)-2,3,4,5,5a,6,8,9-octahydro-7H-1,2,5,7-tetraazabenzo[cd]azulen-7-yl)prop-2-en-1-one]	1 to 100 nM	> 3000 nM
0.015 to 0.055 µM	C=CC(=O)N1CCc2nn(-c3ccc(C(C)C)c(F)c3O)c3c2C(C1)N(C(=O)c1cnc(C(F)(F)F)c(O)c1)CC3 (stereo not drawn) [Compound 64, 1-(2-(3-fluoro-2-hydroxy-4-isopropylphenyl)-5-(5-hydroxy-6-(trifluoromethyl)nicotinoyl)-2,3,4,5,5a,6,8,9-octahydro-7H-1,2,5,7-tetraazabenzo[cd]azulen-7-yl)prop-2-en-1-one]	1 to 100 nM	> 3000 nM
0.005 to 0.015 µM	C=CC(=O)N1CCc2nn(-c3ccc(C4CCC4)c(F)c3N)c3c2C(C1)N(C(=O)c1cnc(C(F)(F)F)c(O)c1)CC3 (stereo not drawn) [Compound 71, 1-(2-(2-amino-4-cyclobutyl-3-fluorophenyl)-5-(5-hydroxy-6-(trifluoromethyl)nicotinoyl)-2,3,4,5,5a,6,8,9-octahydro-7H-1,2,5,7-tetraazabenzo[cd]azulen-7-yl)prop-2-en-1-one]	1 to 100 nM	> 3000 nM
0.0015 to 0.005 µM	C=CC(=O)N1CCc2nn(-c3ccc(C4CC4)cc3O)c3c2C(C1)N(C(=O)c1c(N)cc(Br)c2nc[nH]c12)CC3 (stereo not drawn) [Compound 212, 1-(5-(6-amino-4-bromo-1H-benzo[d]imidazole-7-carbonyl)-2-(4-cyclopropyl-2-hydroxyphenyl)-2,3,4,5,5a,6,8,9-octahydro-7H-1,2,5,7-tetraazabenzo[cd]azulen-7-yl)prop-2-en-1-one]	1 to 100 nM	> 3000 nM
0.005 to 0.015 µM	C=CC(=O)N1CCc2nn(-c3ccc(C(C)C)cc3O)c3c2C(C1)N(C(=O)c1ccc(C(F)(F)F)nc1N)CC3 (stereo not drawn) [Compound 173, 1-(5-(2-amino-6-(trifluoromethyl)nicotinoyl)-2-(2-hydroxy-4-isopropylphenyl)-2,3,4,5,5a,6,8,9-octahydro-7H-1,2,5,7-tetraazabenzo[cd]azulen-7-yl)prop-2-en-1-one]	1 to 100 nM	> 3000 nM
0.005 to 0.015 µM	C=CC(=O)N1CCc2nn(-c3ccc(C(C)C)cc3)c3c2C(C1C)N(C(=O)c1cnc(C(F)(F)F)cc1N)CC3 (stereo not drawn) [Compound 168, 1-(5-(4-amino-6-(trifluoromethyl)nicotinoyl)-2-(4-isopropylphenyl)-6-methyl-2,3,4,5,5a,6,8,9-octahydro-7H-1,2,5,7-tetraazabenzo[cd]azulen-7-yl)prop-2-en-1-one]	1 to 100 nM	> 3000 nM
0.005 to 0.015 µM	C=CC(=O)N1CCc2nn(-c3cc(F)c(C4CC4)cc3O)c3c2C(C1)N(C(=O)c1cnc(C(F)(F)F)cc1N)CC3 (stereo not drawn) [Compound 224, 1-(5-(4-amino-6-(trifluoromethyl)nicotinoyl)-2-(4-cyclopropyl-5-fluoro-2-hydroxyphenyl)-2,3,4,5,5a,6,8,9-octahydro-7H-1,2,5,7-tetraazabenzo[cd]azulen-7-yl)prop-2-en-1-one]	1 to 100 nM	> 3000 nM
0.005 to 0.015 µM	C=CC(=O)N1CCc2nn(-c3ccc(SC(F)(F)F)cc3O)c3c2C(C1)N(C(=O)c1cnc(C(F)(F)F)cc1N)CC3 (stereo not drawn) [Compound 226, 1-(5-(4-amino-6-(trifluoromethyl)nicotinoyl)-2-(2-hydroxy-4-((trifluoromethyl)thio)phenyl)-2,3,4,5,5a,6,8,9-octahydro-7H-1,2,5,7-tetraazabenzo[cd]azulen-7-yl)prop-2-en-1-one]	1 to 100 nM	> 3000 nM
0.0015 to 0.005 µM	C=CC(=O)N1CCc2nn(-c3ccc(C4CCC4)cc3O)c3c2C(C1)N(C(=O)c1cnc(OC(F)F)cc1N)CC3 (stereo not drawn) [Compound 164, 1-(5-(4-amino-6-(difluoromethoxy)nicotinoyl)-2-(4-cyclobutyl-2-hydroxyphenyl)-2,3,4,5,5a,6,8,9-octahydro-7H-1,2,5,7-tetraazabenzo[cd]azulen-7-yl)prop-2-en-1-one]	1 to 100 nM	> 3000 nM
0.005 to 0.015 µM	C=CC(=O)N1CCc2nn(-c3ccc(C4CC4)c(F)c3O)c3c2C(C1)N(C(=O)c1cnc(C(F)(F)F)c(F)c1N)CC3 (stereo not drawn) [Compound 218, 1-(5-(4-amino-5-fluoro-6-(trifluoromethyl)nicotinoyl)-2-(4-cyclopropyl-3-fluoro-2-hydroxyphenyl)-2,3,4,5,5a,6,8,9-octahydro-7H-1,2,5,7-tetraazabenzo[cd]azulen-7-yl)prop-2-en-1-one]	1 to 100 nM	> 3000 nM
0.0015 to 0.005 µM	C=CC(=O)N1CCc2nn(-c3ccc(C4CCCC4)cc3O)c3c2C(C1)N(C(=O)c1cnc(C(F)(F)F)cc1N)CC3 (stereo not drawn) [Compound 217, 1-(5-(4-amino-6-(trifluoromethyl)nicotinoyl)-2-(4-cyclopentyl-2-hydroxyphenyl)-2,3,4,5,5a,6,8,9-octahydro-7H-1,2,5,7-tetraazabenzo[cd]azulen-7-yl)prop-2-en-1-one]	1 to 100 nM	> 3000 nM

From patent publication US20250346600A1, “TRICYCLIC DERIVATIVES AND RELATED USES” (MOMA Therapeutics, Inc., priority 2023, published 2025)
